{"source": "ChEMBL document CHEMBL1121533", "about": "“Synthesis of 8-methoxy-15,16-dinor-6,8,10-trichothecatriene 12,13 alpha-epoxide and 12,13 beta-epoxide as potential antineoplastic agents” (J Med Chem, 1980)", "key": {"[1]": {"assay": "Tested for in vitro cytotoxic potency of compound in 9KB assay", "format": "cell-based", "settings": "human, KB (9KB) cells; read-out: ED50 (the source's name)"}, "P388 [2]": {"test_system": "P388", "assay": "Tested for in vivo antileukemic activity of compound against P388 at 50 mg/kg dose; NA means Not Active", "format": "functional, organism-based", "set-up": "dose 50 mg/kg", "settings": "Mus musculus"}, "P388 [3]": {"test_system": "P388", "assay": "Tested for in vivo antileukemic activity of compound against P388 at 25 mg/kg dose; NA means Not Active", "format": "functional, organism-based", "set-up": "dose 25 mg/kg", "settings": "Mus musculus"}, "P388 [4]": {"test_system": "P388", "assay": "Tested for in vivo antileukemic activity of compound against P388 at 12.5 mg/kg dose; NA means Not Active", "format": "functional, organism-based", "set-up": "dose 12.5 mg/kg", "settings": "Mus musculus"}}, "note": "The source made the active and inactive calls. No cut-off for these calls is given here."}
{"smiles": "COc1ccc2c(c1)[C@@]1(C)CC[C@@H](O2)C12CC2", "values": [{"measurement": "CC50", "setting": "[1]", "result": 26, "unit": "µg/mL"}, {"measurement": "ED50", "setting": "P388 [2]", "result": "inactive"}, {"measurement": "ED50", "setting": "P388 [3]", "result": "inactive"}, {"measurement": "ED50", "setting": "P388 [4]", "result": "inactive"}]}
